Test [1] has as its target T1, dopamine D2 receptor (D2R, D2L long isoform) (Homo sapiens, UniProt P14416). Kind of test: cell-based. As to conditions: read-out: % of the mean response to 1 μM dopamine.
The target of test [2] is T1, dopamine D2 receptor (D2R, D2L long isoform). Nature of the test: GIRK1/[…] current activation in Xenopus oocytes. Type of test: cell-based.
In test [3] the target is dopamine D3 receptor (D3R) (Homo sapiens, UniProt P35462). Nature of the test: GIRK1/[…] current activation in Xenopus oocytes expressing D3R. Type of test: cell-based.
dopamine D3 receptor (D3R), sequence (P35462 whole entry): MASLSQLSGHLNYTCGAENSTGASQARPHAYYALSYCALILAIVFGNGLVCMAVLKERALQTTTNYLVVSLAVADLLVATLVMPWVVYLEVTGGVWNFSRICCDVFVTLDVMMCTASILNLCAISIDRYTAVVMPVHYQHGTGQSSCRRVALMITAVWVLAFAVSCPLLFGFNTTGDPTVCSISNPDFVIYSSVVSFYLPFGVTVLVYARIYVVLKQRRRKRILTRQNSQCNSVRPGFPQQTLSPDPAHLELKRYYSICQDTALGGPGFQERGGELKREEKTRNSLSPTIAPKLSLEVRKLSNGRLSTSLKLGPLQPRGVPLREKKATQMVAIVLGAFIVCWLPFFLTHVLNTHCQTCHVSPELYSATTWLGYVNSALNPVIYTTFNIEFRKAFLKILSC

T1 sequence (P14416 whole entry, canonical isoform): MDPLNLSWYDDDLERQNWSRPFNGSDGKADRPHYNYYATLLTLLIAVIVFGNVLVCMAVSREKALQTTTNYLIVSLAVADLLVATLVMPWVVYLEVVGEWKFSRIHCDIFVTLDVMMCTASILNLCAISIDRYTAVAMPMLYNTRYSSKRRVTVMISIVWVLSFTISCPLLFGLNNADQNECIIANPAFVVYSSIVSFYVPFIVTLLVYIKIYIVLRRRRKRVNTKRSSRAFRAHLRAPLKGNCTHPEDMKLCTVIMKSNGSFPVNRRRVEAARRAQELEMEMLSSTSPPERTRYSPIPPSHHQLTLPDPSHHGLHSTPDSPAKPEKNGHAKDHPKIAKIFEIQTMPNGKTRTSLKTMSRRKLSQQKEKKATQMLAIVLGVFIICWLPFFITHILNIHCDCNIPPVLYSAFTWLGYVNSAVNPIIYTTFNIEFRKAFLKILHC

In the case of `CCCN1CCC[C@@H](c2cccc(O)c2)C1` [(-)-3-PPP], the Emax in test [1] was 27.7 ± 7.5%.
Broadly, the EC50 is the concentration that produces a half-maximal response. Read a low EC50 as a more potent agent. As to `Clc1cccc(C2CCN(CCCOc3ccc4scnc4c3)CC2)c1Cl` [UNC9994], the figures for the EC50 in test [2] and in test [3] were 185 nM and 62.1 nM, respectively.

Source of the values: paper PMC6276031 (International Journal of Neuropsychopharmacology, 2018).
